Experimental data reported in patent US20090176718A1, “Berry Preparations For Treatment Of Diabetes And Metabolic Syndrome” (priority 2007, published 2009).
Marks after values point to notes of the source that are not given here.

Experiments:
[1] = tested on: male C57bl/6J mice fed very high-fat diet (diet induced diabetes); assay: Blood glucose levels in food restricted high-fat-diet (diabetic) C57BL/6J mice after gavage, vehicle 66% LABRASOL; type: in vivo, mouse; details: for Hypoglycemic activity (in words): 300 mg/kg; for % decrease from 0 h / Blood glucose, 6 hours: 6 hours
Description: The C57B6 mouse strain becomes diabetic when maintained on a high fat diet, it therefore serves as a model for Type 2 diabetes. A screen for treatments effective against diet induced diabetes utilizes male C57BL/6J mice (4-5 week old, 19-20 g) fed a high-fat diet (60% fat in kcal) for 10-16 weeks. This diet induces obesity and diabetes in this mouse strain. Extracts that induce a 20-40% decline in the blood glucose level are used for further testing.
Five-week-old male C57bl/6J mice were purchased from Jackson Labs (Maine) and were acclimatized for 1 week before being randomly assigned into the experimental groups. The animals were housed four to a cage with free access to water in a room with a 12:12 hour light-dark cycle (7:00 AM-7:00 PM), a temperature of 24±1° C., and the animals were weighed weekly. During the acclimatization period, each animal was fed a regular diet ad libitum. At 6-weeks old, the mice were randomly divided into two groups: low fat or very high fat fed groups. The mice continued to receive either a low fat diet (LFD) or very high-fat diet (VHFD) for a 12-week period. The high-fat diet food was purchased from Research Diets Inc., and the nutrition content of very high-fat diet food was similar to that of the low fat diet food except that carbohydrates were lower (70 kcal % vs. 20 kcal %) and the addition of more lard (10 kcal % vs. 60 kcal %) in the diet. Body weights were measured weekly, and at every other week blood was collected for blood glucose analysis. […] Animals fed with LFD were also fasted for 4 hours. […] As a positive control, metformin (Fortamet®, Gluocphase®, Glumetza®, Romet®) was administered instead of plant extract at a dose of 300 mg/kg (MET300). […] Without being limited by theory, metformin may act by increasing insulin sensitivity via increasing the utilization of glucose. The experimental protocols were approved by Rutgers University Institutional Care and Use Committee and followed federal, and state laws.
All treatments were provided by gavage with a vehicle of 66% LABRASOL®, a lipid-based self-emulsifying excipient. Abbreviations for Table 1 are as follows: FC=crude extract, F2=anthocyanin enriched extract, FT=treated extract to promote chalcone formation, metformin is a drug used as a positive control. The results were as follows:
All treatments were provided by gavage with a vehicle of 66% LABRASOL®. Abbreviations for Table 2 are as follows: FC=crude extract, F2=anthocyanin-enriched extract, FT=treated extract to promote chalcone formation, metformin is a drug used as a positive control; *:p<0.05; **:p<0.01; ***:p<0.001 vs 0 hours; c:p<0.05; cc:p<0.01; ccc:p<0.001 vs LABRASOL®. The results were as follows:
All treatments were provided by gavage with a vehicle of 66% LABRASOL®. Abbreviations for Table 3 are as follows: FT=treated extract to promote chalcone formation, F2=anthocyanin enriched extract, MBCE=maqui berry crude extract, MBA=maqui berry anthocyanin-rich extract, metformin is a drug used as a positive control; *:p<0.05; **:p<0.01; ***:p<0.001 vs. 0 hours; c:p<0.05; cc:p<0.01; ccc:p<0.001 vs. LABRASOL®.
The hypoglycemic effects of delphinidin-3-glucoside (Dp 3-glc) and malvidin-3-glucoside (Mv-3-glc) relative to blueberry anthocyanin-enriched extracts and metformin in insulin resistant C57bl/6J mice were investigated. Malvidin glycosides are the predominant anthocyanins of the lowbush blueberry extracts. Delphinidin-3-glucoside likely is a major component of the blueberry extracts. It is reported to be the active hypoglycemic compound from the leaves of Vaccinium species. The animals were maintained on a high fat diet and food restricted 4 hours prior to treatment by gavage. The extracts and metformin were formulated with 66% Labrasol as the delivery vehicle

[2] = tested on: food restricted C57B6 mice; assay: Blood glucose levels in food restricted C57B6 mice using water as the gavage vehicle; type: in vivo, mouse; details: Table 5, 300 mg/kg gavage
Method: Five-week-old male C57bl/6J mice were purchased from Jackson Labs (Maine) and were acclimatized for 1 week before being randomly assigned into the experimental groups. The animals were housed four to a cage with free access to water in a room with a 12:12 hour light-dark cycle (7:00 AM-7:00 PM), a temperature of 24±1° C., and the animals were weighed weekly. During the acclimatization period, each animal was fed a regular diet ad libitum. At 6-weeks old, the mice were randomly divided into two groups: low fat or very high fat fed groups. The mice continued to receive either a low fat diet (LFD) or very high-fat diet (VHFD) for a 12-week period. The high-fat diet food was purchased from Research Diets Inc., and the nutrition content of very high-fat diet food was similar to that of the low fat diet food except that carbohydrates were lower (70 kcal % vs. 20 kcal %) and the addition of more lard (10 kcal % vs. 60 kcal %) in the diet. Body weights were measured weekly, and at every other week blood was collected for blood glucose analysis. Animals fed with VHFD were fasted for 4 hours and fed orally (gavage) with plant extracts (500 mg/kg) or […] to test efficacy of plant extracts. Animals fed with LFD were also fasted for 4 hours. Blood glucose readings are made 0 hours, 3 hours, and 6 hours after treatment (animals were fasted during the testing period). As a positive control, metformin (Fortamet®, Gluocphase®, Glumetza®, Romet®) was administered instead of plant extract at a dose of 300 mg/kg (MET300). […] Without being limited by theory, metformin may act by increasing insulin sensitivity via increasing the utilization of glucose. The experimental protocols were approved by Rutgers University Institutional Care and Use Committee and followed federal, and state laws.
The MBA was active at both 500 mg/kg and 250 mg/kg. Therefore, the use of Labrasol as a bioenhancing agent dose was not necessary with the MBA. A robust response was seen when Labrasol was not included in the dosing vehicle.

[3] = Example 3, 300 mg/kg by gavage with Labrasol, insulin resistant C57bl/6J mice
[4] = Table 4, insulin resistant C57bl/6J mice, 300 mg/kg gavage in 66% Labrasol
[5] = Table 2, 300 mg/kg gavage in 66% LABRASOL
[6] = Table 3, 250 mg/kg gavage in 66% LABRASOL

OC[C@H]1O[C@@H](Oc2cc3c(O)cc(O)cc3[o+]c2-c2cc(O)c(O)c(O)c2)[C@H](O)[C@@H](O)[C@@H]1O [Dp 3-glc, delphinidin-3-glucoside]
Hypoglycemic activity (in words) [1, 3]: did not significantly show hypoglycemic activity
Hypoglycemic activity (in words) ([1]; Example 3, 300 mg/kg by gavage with Labrasol, insulin resistant C57bl/6J mice, listed as delphinidin-3-O-glucoside): did not have significant hypoglycemic activity
Blood glucose, 0 hours [1, 4]: 214 ± 7.4
% decrease from 0 h [1, 4]: −17 ± 5.7%
Blood glucose, 6 hours [1, 4]: 186.6 ± 15.5

CN(C)C(=N)N=C(N)N [Metformin, metformin]
Blood glucose, 0 hours ([2]; 0 hours): 189 ± 11.1
% decrease from 0 hours ([2]; 6 hours): −43.4 ± 7.8%
Blood glucose, 6 hours ([2]; 6 hours): 106.8 ± 14.2
Blood glucose, 0 hours ([1]; Table 1, 300 mg/kg gavage in 66% LABRASOL): 226 ± 18
Blood glucose, 2 hours ([1]; Table 1, 300 mg/kg gavage in 66% LABRASOL, 2 hours): 183 ± 25
Blood glucose, 4 hours ([1]; Table 1, 300 mg/kg gavage in 66% LABRASOL, 4 hours): 165 ± 29
% decrease from 0 hours ([1]; Table 1, 300 mg/kg gavage in 66% LABRASOL, last time point 4 hours): −27%
Blood glucose, 0 hours [1, 5]: 207 ± 18
Blood glucose, 3 hours [1, 5]: 211 ± 15
Blood glucose, 5 hours ([1]; Table 2, 300 mg/kg gavage in 66% LABRASOL, 5 hours): 128 ± 17**^cc
% decrease from 0 hours ([1]; Table 2, 300 mg/kg gavage in 66% LABRASOL, last time point 5 hours): −38%
Blood glucose, 0 hours [1, 6]: 249 ± 29
Blood glucose, 3 hours [1, 6]: 273 ± 32
Blood glucose, 6 hours [1, 6]: 214 ± 39
% decrease from 0 hours ([1]; Table 3, 250 mg/kg gavage in 66% LABRASOL, last time point 6 hours): −14%
Blood glucose, 0 hours [1, 4]: 206.7 ± 11
% decrease from 0 h [1, 4]: −49 ± 4.5%
Blood glucose, 6 hours [1, 4]: 108 ± 8.9

COc1cc(-c2[o+]c3cc(O)cc(O)c3cc2O[C@@H]2O[C@H](CO)[C@@H](O)[C@H](O)[C@H]2O)cc(OC)c1O [Mv-3-glc, malvidin-3-glucoside]
Lowered blood glucose levels by ([1]; Example 3, 300 mg/kg by gavage with Labrasol): 34%
Hypoglycemic activity (in words) [1, 3]: comparable to the hypoglycemic activity of the phenolics-rich extract at a dose of 500 mg/kg
Hypoglycemic activity (in words) ([1]; Example 3, 300 mg/kg by gavage with Labrasol, insulin resistant C57bl/6J mice, listed as malvidin glucoside): comparable to the metformin positive control at 300 mg/kg
Blood glucose, 0 hours [1, 4]: 204 ± 20.8
% decrease from 0 h [1, 4]: −31 ± 6.3%
Blood glucose, 6 hours [1, 4]: 134.4 ± 8.3
